Data: patent publication US20110053773A1, “METHODS OF IMPROVING NUTRITIONAL VALUE OF PLANTS” (UNIVERSITY OF TENNESSEE RESEARCH FOUNDATION, priority 2009, published 2011)

Experiments:
[1] = tested on: sweet corn variety 'Incredible'; assay: Sugar and key antioxidant content of sweet corn (Example 1, Table 15); format: in vivo, Zea mays var. rugosa; details: rates g ai/ha: Nicosulfuron 35, Mesotrione 105, Topramezone 18, Isoxadifen-ethyl 13, all incl. treated check with atrazine 560 g ai/ha + 1% v/v crop oil concentrate
Source text: Herbicide treatments were applied in a water carrier at 23 gallons of solution per acre on a field site near Knoxville, Tenn. and Painter, Va. […] All treatments included a PRE application of atrazine plus metolachlor in order to maintain weed free conditions. In addition, all POST treatments (including the treated check) included atrazine at 560 g ai/ha and crop oil concentrate at 1% v/v. […] Sweet corn was harvested from the center two rows of each four row plot and weighed in the husk.

'Riviera' bermudagrass [2] = assay: Visual tissue whitening of bermudagrass after mesotrione (Example 5); format: in vivo, Cynodon dactylon (L.) Pers.; details: 0.28 kg/ha postemergence
Source text: (§1) Greenhouse and laboratory studies were initiated with ‘Riviera’ bermudagrass (Cynodon dactylon (L.) Pers.) treated postemergence with mesotrione at 0.28 kg×ha^−1 and sampled for tissue pigment concentrations at 0, 3, 7, 14, 21, 28 and 35 days after treatment (DAT; Table 16). […] Due to the antioxidant activity of these carotenoid pigments, these increases should improve bermudagrass stress tolerance (Kopsell et al., 2010).

[3] = tested on: sweet corn (Zea mays var. rugosa) cultivar 'Incredible'; assay: Content analysis of sweet corn ears: crude protein, amino acids, detergent fiber, fatty acids, minerals (Example 1); format: in vivo; details: POST at b59 rates; every treatment incl. check also got atrazine 560 g ai/ha + COC 1% v/v; relative to treated check (atrazine), check=0
Source text: Herbicide treatments were applied in a water carrier at 23 gallons of solution per acre on a field site near Knoxville, Tenn. and Painter, Va. Treatments include the following: 1) nicosulfuron at 35 g ai/ha (Accent); 2) mesotrione at 105 g ai/ha (Callisto); 3) nicosulfuron at 35 g ai/ha+mesotrione at 105 g ai/ha (Callisto+Accent); 4) tembotrione at 92 g ai/ha+isoxadifen-ethyl at 46 g ai/ha (Laudis); 5) topramezone at 15 g ai/ha (Impact); 6) nicosulfuron at 35 g ai/ha+isoxadifen-ethyl at 9 g ai/ha (Accent Q); 7) nicosulfuron at 35 g ai/ha+isoxadifen-ethyl at 9 g ai/ha+topramezone at 15 g ai/ha (Accent Q+Impact); 8) nicosulfuron 35 g ai/ha+isoxadifen-ethyl at 9 g ai/ha+mesotrione at 105 g ai/ha (Accent Q+Callisto); 9) treated check (atrazine or Aatrex). All treatments included a PRE application of atrazine plus metolachlor in order to maintain weed free conditions. In addition, all POST treatments (including the treated check) included atrazine at 560 g ai/ha and crop oil concentrate at 1% v/v. […] Sweet corn was harvested from the center two rows of each four row plot and weighed in the husk.

'Riviera' bermudagrass [4] = assay: Leaf tissue pigment concentrations of bermudagrass after mesotrione (Example 5, Table 16); format: in vivo, Cynodon dactylon (L.) Pers.; details: for Blade tissue pigments: Beta-carotene / Blade tissue pigments: Lutein / Blade tissue pigments: Phytoene / Blade tissue pigments: Total Carotenoids / Blade tissue pigments: Violaxanthin / Blade tissue pigments: Zeaxanthin: 0.28 kg ai×ha^−1
Source text: as §1

SMILES: CS(=O)(=O)c1ccc(C(=O)C2C(=O)CCCC2=O)c([N+](=O)[O-])c1 [Mesotrione*CALLISTO, mesotrione]
- Fructose, percent increase [1]: 18%
- Gamma-tocopherol, percent increase [1]: 5%
- Glucose, percent increase [1]: 19%
- Lutein, percent increase [1]: 17%
- Maltose, percent increase [1]: 15%
- Sucrose, percent increase [1]: −32%
- Total Sugars, percent increase [1]: −4%
- Zeaxanthin, percent increase [1]: 1%
- antheraxanthin, percent increase [1]: 14%
- visual tissue whitening, maximum ('Riviera' bermudagrass [2]; by 14 DAT): 38%
- recovery of discolored tissue ('Riviera' bermudagrass [2]; by 21 DAT): re-greening of discolored tissue was observed
- Acid DF [3]: 10 % of check
- Alanine [3]: 4 % of check
- Amino Acid [3]: 6 % of check
- Aspartic ac [3]: 7 % of check
- Cysteine [3]: 6 % of check
- Glutamic ac [3]: 6 % of check
- Glycine [3]: 4 % of check
- Isoleucine [3]: 6 % of check
- Leucine [3]: 6 % of check
- Lysine [3]: 12 % of check
- Methionine [3]: 2 % of check
- Neutral DF [3]: 13 % of check
- Proline [3]: 9 % of check
- Protein [3]: 7 % of check
- Threonine [3]: 16 % of check
- Valine [3]: 7 % of check
- calcium [3]: 0 % of check
- copper [3]: 0 % of check
- iron [3]: 21 % of check
- magnesium [3]: 20 % of check
- manganese [3]: 25 % of check
- mon fattyac [3]: 9 % of check
- phosphorous [3]: 12 % of check
- polyfattyac [3]: 12 % of check
- potassium [3]: 12 % of check
- sat fattyac [3]: 7 % of check
- sodium [3]: 21 % of check
- tot fattyac [3]: 11 % of check
- zinc [3]: 16 % of check
- Blade tissue pigments: Beta-carotene ('Riviera' bermudagrass [4]; 0 days after treatment): 17.2 mg/100 g fresh weight
- Blade tissue pigments: Lutein ('Riviera' bermudagrass [4]; 0 days after treatment): 23.6 mg/100 g fresh weight
- Blade tissue pigments: Phytoene ('Riviera' bermudagrass [4]; 0 days after treatment): 0.0 mg/100 g fresh weight
- Blade tissue pigments: Total Carotenoids ('Riviera' bermudagrass [4]; 0 days after treatment): 57.5 mg/100 g fresh weight
- Blade tissue pigments: Violaxanthin ('Riviera' bermudagrass [4]; 0 days after treatment): 6.9 mg/100 g fresh weight
- Blade tissue pigments: Zeaxanthin ('Riviera' bermudagrass [4]; 0 days after treatment): 3.2 mg/100 g fresh weight
- Blade tissue pigments: Beta-carotene ('Riviera' bermudagrass [4]; 3 days after treatment): 11.6 mg/100 g fresh weight
- Blade tissue pigments: Lutein ('Riviera' bermudagrass [4]; 3 days after treatment): 14.8 mg/100 g fresh weight
- Blade tissue pigments: Phytoene ('Riviera' bermudagrass [4]; 3 days after treatment): 37.5 mg/100 g fresh weight
- Blade tissue pigments: Total Carotenoids ('Riviera' bermudagrass [4]; 3 days after treatment): 42.9 mg/100 g fresh weight
- Blade tissue pigments: Violaxanthin ('Riviera' bermudagrass [4]; 3 days after treatment): 1.6 mg/100 g fresh weight
- Blade tissue pigments: Zeaxanthin ('Riviera' bermudagrass [4]; 3 days after treatment): 3.1 mg/100 g fresh weight
- Blade tissue pigments: Beta-carotene ('Riviera' bermudagrass [4]; 7 days after treatment): 7.4 mg/100 g fresh weight
- Blade tissue pigments: Lutein ('Riviera' bermudagrass [4]; 7 days after treatment): 14.1 mg/100 g fresh weight
- Blade tissue pigments: Phytoene ('Riviera' bermudagrass [4]; 7 days after treatment): 38.0 mg/100 g fresh weight
- Blade tissue pigments: Total Carotenoids ('Riviera' bermudagrass [4]; 7 days after treatment): 35.6 mg/100 g fresh weight
- Blade tissue pigments: Violaxanthin ('Riviera' bermudagrass [4]; 7 days after treatment): 1.6 mg/100 g fresh weight
- Blade tissue pigments: Zeaxanthin ('Riviera' bermudagrass [4]; 7 days after treatment): 3.3 mg/100 g fresh weight
- Blade tissue pigments: Beta-carotene ('Riviera' bermudagrass [4]; 14 days after treatment): 7.6 mg/100 g fresh weight
- Blade tissue pigments: Lutein ('Riviera' bermudagrass [4]; 14 days after treatment): 16.4 mg/100 g fresh weight
- Blade tissue pigments: Phytoene ('Riviera' bermudagrass [4]; 14 days after treatment): 11.7 mg/100 g fresh weight
- Blade tissue pigments: Total Carotenoids ('Riviera' bermudagrass [4]; 14 days after treatment): 47.2 mg/100 g fresh weight
- Blade tissue pigments: Violaxanthin ('Riviera' bermudagrass [4]; 14 days after treatment): 3.5 mg/100 g fresh weight
- Blade tissue pigments: Zeaxanthin ('Riviera' bermudagrass [4]; 14 days after treatment): 3.8 mg/100 g fresh weight
- Blade tissue pigments: Beta-carotene ('Riviera' bermudagrass [4]; 21 days after treatment): 11.4 mg/100 g fresh weight
- Blade tissue pigments: Lutein ('Riviera' bermudagrass [4]; 21 days after treatment): 21.2 mg/100 g fresh weight
- Blade tissue pigments: Phytoene ('Riviera' bermudagrass [4]; 21 days after treatment): 0.0 mg/100 g fresh weight
- Blade tissue pigments: Total Carotenoids ('Riviera' bermudagrass [4]; 21 days after treatment): 60.1 mg/100 g fresh weight
- Blade tissue pigments: Violaxanthin ('Riviera' bermudagrass [4]; 21 days after treatment): 4.0 mg/100 g fresh weight
- Blade tissue pigments: Zeaxanthin ('Riviera' bermudagrass [4]; 21 days after treatment): 4.7 mg/100 g fresh weight
- Blade tissue pigments: Beta-carotene ('Riviera' bermudagrass [4]; 28 days after treatment): 18.9 mg/100 g fresh weight
- Blade tissue pigments: Lutein ('Riviera' bermudagrass [4]; 28 days after treatment): 32.1 mg/100 g fresh weight
- Blade tissue pigments: Phytoene ('Riviera' bermudagrass [4]; 28 days after treatment): 0.0 mg/100 g fresh weight
- Blade tissue pigments: Total Carotenoids ('Riviera' bermudagrass [4]; 28 days after treatment): 77.2 mg/100 g fresh weight
- Blade tissue pigments: Violaxanthin ('Riviera' bermudagrass [4]; 28 days after treatment): 2.8 mg/100 g fresh weight
- Blade tissue pigments: Zeaxanthin ('Riviera' bermudagrass [4]; 28 days after treatment): 5.7 mg/100 g fresh weight
- Blade tissue pigments: Beta-carotene ('Riviera' bermudagrass [4]; 35 days after treatment): 21.2 mg/100 g fresh weight
- Blade tissue pigments: Lutein ('Riviera' bermudagrass [4]; 35 days after treatment): 37.1 mg/100 g fresh weight
- Blade tissue pigments: Phytoene ('Riviera' bermudagrass [4]; 35 days after treatment): 0.0 mg/100 g fresh weight
- Blade tissue pigments: Total Carotenoids ('Riviera' bermudagrass [4]; 35 days after treatment): 92.7 mg/100 g fresh weight
- Blade tissue pigments: Violaxanthin ('Riviera' bermudagrass [4]; 35 days after treatment): 6.8 mg/100 g fresh weight
- Blade tissue pigments: Zeaxanthin ('Riviera' bermudagrass [4]; 35 days after treatment): 6.4 mg/100 g fresh weight
- pigments in treated plants ('Riviera' bermudagrass [4]; 0.28 kg/ha postemergence, after initial decrease with tissue whitening): most recovered to untreated levels by 21 DAT
- lutein, β-carotene, and zeaxanthin versus untreated control plants ('Riviera' bermudagrass [4]; 0.28 kg/ha postemergence, at 35 DAT): accumulated to levels exceeding untreated control plants
- phytoene detection ('Riviera' bermudagrass [4]; 0.28 kg/ha postemergence, sampled 0 to 35 DAT): only detected in mesotrione treated plants at 3, 7, and 14 DAT
